Laboratory results as given in patent US12725802B2, “Aqueous rechargeable battery including organic positive active material” (Seoul National University R&DB Foundation, priority 2021, dated 2026).
≈ marks a conversion by molar mass, not a printed value. Where two headings read alike, the source gives them in different places.

Columns and labels:
[1] = Analysis of solubility of positive active material in the electrolyte during cycle (electrode washed with new electrolyte, color; UV-visible spectroscopy); type: physicochemical; settings: FIG. 7
Method: Each cell of Comparative Example 1 and Examples 1 and 2 was checked regarding how much the positive active materials were dissolved when the electrodes were taken out during the charge and washed with a new electrolyte, and the results are shown in FIG. 7.
FIG. 8 is a graph quantitatively analyzing amounts of DMPZ dissolved in each electrolyte of Comparative Example 1 and Examples 1 and 2. The cycled DMPZ electrode was re-wetted in the electrolyte, and ultraviolet (UV)-visible ray spectroscopy was performed with respect to solutions in each of the DMPZ^+ and DMPZ^2+ states to measure areas of an absorption spectrum and thus obtain each amount of DMPZ^+ and DMPZ^2+ dissolved out in the electrolyte. In FIG. 8, a vertical axis indicates the DMPZ state according to SOC, while a horizontal axis indicates a weight change as solubility (%). In FIG. 8, Comparative Example 1 is shown on the right, Example 1 is in the middle, and Example 2 is on the left.

[2] = Visual observation of the solubility of DMPZ in various solvents (color change, naked eye); type: physicochemical; settings: FIG. 3; for solubility: organic solvent or mixture, read-out: solubility (concentration dissolved)
Excerpt: DMPZ was respectively dissolved in various solvents, and color changes in the solutions were examined with the naked eye to evaluate dissolution degrees.

CN1c2ccccc2N(C)c2ccccc21 [DMPZ, 5,10-dihydro-5,10-dimethylphenazine]
solubility in the electrolyte during the cycles ([1]; Comparative Example 1 electrolyte: 1 M NaClO4 in TEGDME, DMPZ, DMPZ+ (SOC 50) and DMPZ2+ (SOC 100)): high solubility
solubility in the electrolyte during the cycles ([1]; Example 1 electrolyte: 1 m NaClO4 and 0.5 m Zn(CF3SO3)2 in water, charged DMPZ (DMPZ+, DMPZ2+)): slightly dissolved
solubility in the electrolyte during the cycles ([1]; Example 2 electrolyte: 17 m NaClO4 and 0.5 m Zn(CF3SO3)2 in water, DMPZ, DMPZ+ and DMPZ2+): not dissolved at all
solubility ([2]; dimethyl carbonate (DMC)): ≥ 100 mM
solubility ([2]; propylene carbonate (PC)): ~20 mM (≈ 4.21 mg/mL)
solubility ([2]; tetraethylene glycol dimethyl ether (TEGDME)): ≥ 100 mM
solubility (dissolution) ([2]; water solvent): not dissolved in the water solvent at all
